Experimental data published in patent US8097758B2, “Isoserine derivatives for use as coagulation factor IXa inhibitors” (Sanofi-Aventis, priority 2006, dated 2012).

Molecular target: T1, factor IXa (Homo sapiens, UniProt P00740)
T1 construct: purchased Calbiochem (Merck KGaA) 233290
Assay: Factor IXa enzyme assay (chromogenic substrate PEFA 3107)
Type: biochemical
Settings: factor IXa 277 nM final, pH 7.4, 15 min preincubation at room temperature, read at 405 nm, duplicate determination
Description: The prepared substances from the examples were tested for inhibition of the enzymatic activity of FIXa using the substrate PEFA 3107 (Pentapharm/Loxo; via S. Black GmbH, Baumstrasse 41, 47198 Duisburg, Germany; Pr. No. 095-20) and factor IXa (Calbiochem, Merck KGaA markets Calbiochem in Germany, Life Science & Analytics, 64293 Darmstadt; Pr. No. 233290). In this method, 28 μl of test buffer (50 mM α,α,α-tris(hydroxymethyl)methylamine (TRIS), 100 mM NaCl, 5 mM CaCl2, 0.1% bovine serum albumin, pH 7.4) and 10 μl of factor IXa (277 nM final concentration in the test batch) were added to 2 μl of 10 mM dimethyl sulfoxide solution of the respective test substance, and the mixture was incubated for 15 minutes at room temperature in a 96 half-well microtiter plate. The enzyme reaction was started by addition of 10 μl of substrate (1 mM stock solution in water). The time course of the reaction was monitored at 405 nm in a microtiter plate reader (SpectraMax plus 384; Molecular Devices) for 15 minutes.
The IC50 was calculated from the averaged values (duplicate determination) of a dilution series of the test substance with the aid of the software Grafit 4 (Erithacus Software, UK). The inhibition constants (Ki) were calculated according to the Cheng Prusoff equation Ki=IC50/(1+(S/Km), where S=concentration of the test substrate in the test and Km=Michaelis-Menten constant.

T1 sequence (P00740 227-461 limits assumed): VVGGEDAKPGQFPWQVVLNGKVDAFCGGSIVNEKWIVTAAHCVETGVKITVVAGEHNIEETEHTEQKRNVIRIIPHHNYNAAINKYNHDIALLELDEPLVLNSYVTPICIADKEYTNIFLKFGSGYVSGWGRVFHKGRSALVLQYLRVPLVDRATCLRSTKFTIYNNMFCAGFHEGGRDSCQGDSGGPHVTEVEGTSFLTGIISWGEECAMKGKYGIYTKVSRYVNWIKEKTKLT
T1 sequence (P00740 47-191 partner limits assumed): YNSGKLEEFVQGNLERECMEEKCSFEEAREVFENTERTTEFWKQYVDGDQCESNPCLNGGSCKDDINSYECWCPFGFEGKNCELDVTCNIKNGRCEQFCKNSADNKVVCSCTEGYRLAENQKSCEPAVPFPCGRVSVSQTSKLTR

Compound	IC50 [nM]
CCc1ccc(C(=O)NC(c2ccccc2)C(O)C(=O)Nc2ccc3nc(N)[nH]c3c2)s1 (stereo not drawn) [Example 68, 5-Ethylthiophene-2-carboxylic acid [2-(2-amino-3H-benzimidazol-5-ylcarbamoyl)-2-hydroxy-1-phenylethyl]amide]	730
CCc1ccc(C(=O)NC(c2ccccc2)C(O)C(=O)Nc2ccc3c(N)nccc3c2)cc1 (stereo not drawn) [Example 87, N-[2-(1-Aminoisoquinolin-6-ylcarbamoyl)-2-hydroxy-1-phenylethyl]-4-ethylbenzamide]	140
Nc1nc2ccc(NC(=O)C(O)C(NC(=O)c3ccc(-c4cccs4)s3)c3ccccc3)cc2[nH]1 (stereo not drawn) [Example 81, [2,2′]Bithiophenyl-5-carboxylic acid [2-(2-amino-3H-benzimidazol-5-ylcarbamoyl)-2-hydroxy-1-phenylethyl]amide]	570

The remaining compounds from weak to strong by IC50, led by results:

IC50 [nM]	Compound
1340	Nc1nc2ccc(NC(=O)C(O)C(NC(=O)c3ccc(N4CCOCC4)cc3)c3ccccc3)cc2[nH]1 (stereo not drawn) [Example 53, N-[2-(2-Amino-3H-benzimidazol-5-ylcarbamoyl)-2-hydroxy-1-phenylethyl]-4-morpholin-4-yl-benzamide]
280	CC(C)c1ccc(C(=O)NC(c2ccccc2)C(O)C(=O)Nc2ccc3nc(N)[nH]c3c2)cc1 (stereo not drawn) [Example 17, N-[2-(2-Amino-3H-benzimidazol-5-ylcarbamoyl)-2-hydroxy-1-phenylethyl]-4-isopropylbenzamide]
170	COc1cc(OC)cc(C(NC(=O)c2ccc(C(C)C)cc2)C(O)C(=O)Nc2ccc3nc(N)[nH]c3c2)c1 (stereo not drawn) [Example 134, N-[2-(2-Amino-3H-benzimidazol-5-ylcarbamoyl)-1-(3,5-dimethoxyphenyl)-2-hydroxyethyl]-4-iso-propylbenzamide]
